From PMC10974795 (2024)

Test system: Apt-WO-06 (AWO-06) (DNA, aptamer) GTGAGTTTACATGGGGTCCTATAGGCGAACAATCG
Assay: graphene oxide fluorescence recovery
Conditions: buffer composition not stated; aptamer 0.5-30 nM titrated; displaced from graphene oxide; apparent

A Kd of 28.16 nM was found for CC1COc2c(N3CCN(C)CC3)c(F)cc3c(=O)c(C(=O)O)cn1c23 (stereo not shown) in this work.
